# Measurements as given in patent publication US6495591B1, “Fungal efflux pump inhibitors” (Essential Therapeutics, Inc., priority 1997, dated 2002).
# Where two headings read alike, the source gives them in different places.
# Columns and labels:
# [1] = system: C. albicans YEM-30 (wild-type, no pump deleted); assay: microbe, parasite or virus in culture; assay type: cell-based; settings: Candida albicans, read-out: MIC Flu alone
# [2] = system: C. albicans YEM-20 (CDR1 deleted); assay: microbe, parasite or virus in culture; assay type: cell-based; settings: Candida albicans, read-out: MIC Flu alone
# [3] = system: C. albicans YEM-24 (CDR1, CDR2 deleted); assay: microbe, parasite or virus in culture; assay type: cell-based; settings: Candida albicans, read-out: MIC Flu alone
# [4] = system: C. albicans YEM-21 (BEN deleted); assay: microbe, parasite or virus in culture; assay type: cell-based; settings: Candida albicans, read-out: MIC Flu alone
# [5] = system: C. albicans YEM-29 (BEN, FLU1 deleted); assay: microbe, parasite or virus in culture; assay type: cell-based; settings: Candida albicans, read-out: MIC Flu alone
# [6] = system: C. albicans YEM-27 (CDR1, CDR2, BEN, FLU1 deleted); assay: microbe, parasite or virus in culture; assay type: cell-based; settings: Candida albicans, read-out: MIC Flu alone
# [7] = system: C. albicans YEM-10 (low level CDR1 expressor); assay: microbe, parasite or virus in culture; assay type: cell-based; settings: Candida albicans, read-out: MIC Flu alone
# [8] = system: C. albicans YEM-14 (low level CDR1 expressor); assay: microbe, parasite or virus in culture; assay type: cell-based; settings: Candida albicans, read-out: MIC Flu alone
# [9] = system: C. albicans YEM-12 (low level CDR1 expressor); assay: microbe, parasite or virus in culture; assay type: cell-based; settings: Candida albicans, read-out: MIC Flu alone
# [10] = system: C. glabrata YEM-16 (low level CgBEN and CgCDR expression); assay: microbe, parasite or virus in culture; assay type: cell-based; settings: YEM-16; fluconazole alone
# [11] = system: C. glabrata YEM-18 (low level CgBEN and CgCDR expression); assay: microbe, parasite or virus in culture; assay type: cell-based; settings: YEM-18; fluconazole alone
# [12] = system: C. glabrata YEM-17 (CgCDR overexpressor); assay: microbe, parasite or virus in culture; assay type: cell-based; settings: YEM-17; fluconazole alone
# [13] = system: C. glabrata YEM-19 (CgCDR overexpression, higher than YEM-17); assay: microbe, parasite or virus in culture; assay type: cell-based; settings: YEM-19; fluconazole alone
# [14] = system: C. krusei YEM-52 (ATCC 90878), wild type; assay: Broth dilution MIC, fluconazole with/without milbemycin oxime (Table 6); assay type: cell-based; settings: Pichia kudriavzevii, ATCC90878; YEM-52 (ATCC 90878); read-out: MIC Flu alone
# [15] = system: C. albicans YEM-15 (CDR1 & CDR2 overexpressor); assay: microbe, parasite or virus in culture; assay type: cell-based; settings: Candida albicans
# [16] = system: C. glabrata YEM-17 (CgCDR overexpressor); assay: microbe, parasite or virus in culture; assay type: cell-based; settings: Nakaseomyces glabratus
# C. krusei YEM-71 = assay: Broth dilution checkerboard, azoles and terbinafine with milbemycin α9 (Table 8); assay type: cell-based; settings: Pichia kudriavzevii
# [17] = system: S. cerevisiae YEM-1 overexpressing CDR1 (C. albicans); assay: microbe, parasite or virus in culture; assay type: cell-based; settings: Saccharomyces cerevisiae
# [18] = system: S. cerevisiae YEM-37 overexpressing CDR2 (C. albicans); assay: microbe, parasite or virus in culture; assay type: cell-based; settings: Saccharomyces cerevisiae
# [19] = system: S. cerevisiae YEM-39 overexpressing CgCDR (C. glabrata); assay: microbe, parasite or virus in culture; assay type: cell-based; settings: Saccharomyces cerevisiae
# [20] = system: pCgBEN (MF) efflux pump in S. cerevisiae YEM-40; assay type: cell-based, C. glabrata
# [21] = system: YEM 13 C. albicans BEN up; assay: microbe, parasite or virus in culture; assay type: cell-based; settings: Candida albicans, read-out: FLU MIC
# [22] = system: YEM 15 C. albicans, CDR1CDR2 up; assay: microbe, parasite or virus in culture; assay type: cell-based; settings: Candida albicans, read-out: FLU MIC
# YEM 53 C. krusei = assay: FEPI MIC with/without 1/8 fluconazole MIC at 24 hrs (Table 11); assay type: cell-based; settings: Pichia kudriavzevii; YEM 53; NCCLS criteria for azoles; read-out: FLU MIC
# YEM 51 C. glabrata wt = assay: as above; assay type: cell-based; settings: Nakaseomyces glabratus; YEM 51; NCCLS criteria for azoles; read-out: FLU MIC
# YEM 30 C. albicans wt = assay: as above; assay type: cell-based; settings: Candida albicans, YEM 30
# [23] = system: YEM 24 C. albicans ΔCDR1, ΔCDR2; assay: microbe, parasite or virus in culture; assay type: cell-based; settings: Candida albicans, read-out: FLU MIC
# [24] = system: YEM 27 C. albicans ΔCDR1ΔCDR2 ΔBENΔFLU1; assay: microbe, parasite or virus in culture; assay type: cell-based; settings: Candida albicans, read-out: FLU MIC
# [25] = system: C. albicans ΔCDR1 ΔCDR2 ΔBEN ΔFLU1; assay type: cell-based
# Description: (§1) The activity of one milbemycin was also studied in checker-board assays. […] It provides information on the extent of synergism between the two drugs and the concentrations at which synergism can be detected. Using differential surface analysis, pick of synergy volumes are quantified for each combination of drugs and strain tested in a traditional checkerboard assay (Table 13).
# [26] = system: C. albicans, CDR1, CDR2, up; assay type: cell-based
# Description: as §1
# C. glabrata, CgCDR up = assay type: cell-based
# Description: as §1
# C. albicans BEN up = assay: MacSynergy 3-D synergy volume, checkerboard (Table 13); assay type: cell-based
# Description: as §1
# C. krusei [27] = assay: as above; assay type: cell-based
# Description: as §1
# [28] = system: C. albicans clinical isolates (n = 33); assay: microbe, parasite or virus in culture; assay type: cell-based; settings: Candida albicans
# [29] = system: C. glabrata clinical isolates (n = 12); assay: microbe, parasite or virus in culture; assay type: cell-based; settings: Nakaseomyces glabratus
# C. lipolytica = assay: microbe, parasite or virus in culture; assay type: cell-based; settings: Yarrowia lipolytica, read-out: Fluconazole MIC, alone
# C. tropicalis = assay: microbe, parasite or virus in culture; assay type: cell-based; settings: Candida tropicalis, read-out: Fluconazole MIC, alone
# C. neoformans = assay: microbe, parasite or virus in culture; assay type: cell-based, Cryptococcus neoformans; settings: Cryptococcus neoformans, read-out: Fluconazole MIC, alone
# C. krusei [30] = assay: microbe, parasite or virus in culture; assay type: cell-based; settings: Pichia kudriavzevii, read-out: Fluconazole MIC, alone
# [31] = system: S. cerevisiae YEM-3 parent strain (no pump); assay: microbe, parasite or virus in culture; assay type: cell-based; settings: Saccharomyces cerevisiae, read-out: MIC for the parent strain to fluconazole
# C. albicans, wt = assay: MacSynergy 3-D synergy volume, checkerboard (Table 13); assay type: cell-based
# Description: as §1
# C. glabrata, wt = assay: as above; assay type: cell-based
# Description: as §1
# [32] = read-out: Fluconazole MIC90, alone
smiles,measurement,setting,value
"OC(Cn1cncn1)(Cn1cncn1)c1ccc(F)cc1F [Fluconazole, fluconazole, reference compound]",MIC,[1],0.5 µg/mL
same,MIC,[2],0.125 µg/mL
same,MIC,[3],0.125 µg/mL
same,MIC,[4],0.25 µg/mL
same,MIC,[5],0.25 µg/mL
same,MIC,[6],0.03 µg/mL
same,MIC,[7],0.25 µg/mL
same,MIC,[8],0.125 µg/mL
same,MIC,[9],2 µg/mL
same,Fluconazole MIC with 0 μg/ml milbemycin β1,[10],16 µg/mL
same,Fluconazole MIC with 0 μg/ml milbemycin β1,[11],8 µg/mL
same,Fluconazole MIC with 0 μg/ml milbemycin β1,[12],64 µg/mL
same,Fluconazole MIC with 0 μg/ml milbemycin β1,[13],128 µg/mL
same,MIC,[14],64 µg/mL
same,MIC,[15]; read-out: Fluconazole MIC,128 µg/mL
same,MIC,[16]; read-out: Fluconazole MIC,128 µg/mL
same,MIC,"C. krusei YEM-71; YEM71, read-out: Fluconazole MIC",128 µg/mL
same,MIC,[17]; read-out: Fluconazole MIC,128 µg/mL
same,MIC,[18]; read-out: Fluconazole MIC,4 µg/mL
same,MIC,[19]; read-out: Fluconazole MIC,64 µg/mL
same,Fluconazole MIC,[20],32 µg/mL
same,MIC,[21],64 µg/mL
same,MIC,[22],64 µg/mL
same,MIC,YEM 53 C. krusei,64 µg/mL
same,MIC,YEM 51 C. glabrata wt,64 µg/mL
same,MIC,"YEM 30 C. albicans wt; read-out: FLU MIC at 40 hrs, read at 40 hrs",64 µg/mL
same,MIC,"YEM 30 C. albicans wt; read at 24 hours, read-out: FLU MIC at 24 hours",0.5 µg/mL
same,MIC,[23],0.25 µg/mL
same,MIC,[24],≤ 0.125 µg/mL
same,"Synergy Volume, fluconazole + one milbemycin (FEPI, not named)",[25],0.08
same,"Synergy Volume, fluconazole + one milbemycin (FEPI, not named)",[26],2337
same,"Synergy Volume, fluconazole + one milbemycin (FEPI, not named)","C. glabrata, CgCDR up",1815
same,"Synergy Volume, fluconazole + one milbemycin (FEPI, not named)",C. albicans BEN up,196
same,"Synergy Volume, fluconazole + one milbemycin (FEPI, not named)",C. krusei [27],1178
same,MIC50,"[28]; read-out: Fluconazole MIC50, alone, C. albicans n = 33, MIC (80%) in YPD",1 µg/mL
same,MIC90,[28]; [32],> 128 µg/mL
same,MIC50,"[29]; read-out: Fluconazole MIC50, alone",32 µg/mL
same,MIC90,[29]; [32],> 128 µg/mL
same,MIC,C. lipolytica,128 µg/mL
same,MIC,C. tropicalis,> 128 µg/mL
same,MIC,C. neoformans,> 128 µg/mL
same,MIC,C. krusei [30],128 µg/mL
same,MIC,[31],0.5 µg/mL
"CN(C/C=C/C#CC(C)(C)C)Cc1cccc2ccccc12 [Terbinafine, terbinafine]",MIC,[15]; read-out: Terbinafine MIC,128 µg/mL
same,MIC,[16]; read-out: Terbinafine MIC,128 µg/mL
same,MIC,"C. krusei YEM-71; YEM71, read-out: Terbinafine MIC",128 µg/mL
same,MIC,[17]; read-out: Terbinafine MIC,128 µg/mL
same,MIC,[18]; read-out: Terbinafine MIC,2 µg/mL
same,MIC,[19]; read-out: Terbinafine MIC,4 µg/mL
same,"Synergy Volume, terbinafine + one milbemycin (FEPI, not named)",[25],169
same,"Synergy Volume, terbinafine + one milbemycin (FEPI, not named)",[26],1386
same,"Synergy Volume, terbinafine + one milbemycin (FEPI, not named)","C. glabrata, CgCDR up",392
same,"Synergy Volume, terbinafine + one milbemycin (FEPI, not named)",C. albicans BEN up,500
same,"Synergy Volume, terbinafine + one milbemycin (FEPI, not named)","C. albicans, wt",2790
same,"Synergy Volume, terbinafine + one milbemycin (FEPI, not named)","C. glabrata, wt",478
same,"Synergy Volume, terbinafine + one milbemycin (FEPI, not named)",C. krusei [27],1517
